Here are results for one cell line from the supplement of paper PMC10307832.

What all share (experiment): relative viability (nuclei count vs DMSO), 5 days (fraction); higher = more cells survive
Compound in the experiment “XMD13-2 + Navitoclax”: C1CC1C(=O)NC2=NNC3=C2C=CC(=C3)C4=CC(=CC=C4)C(=O)NC5CC5 [XMD13-2] + CC1(C)CCC(c2ccc(Cl)cc2)=C(CN2CCN(c3ccc(C(=O)NS(=O)(=O)c4ccc(N[C@H](CCN5CCOCC5)CSc5ccccc5)c(S(=O)(=O)C(F)(F)F)c4)cc3)CC2)C1 [Navitoclax] (partner 0.5 µM)
A digest of the protocol: (§1)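 Relative viability equals treated-well nuclei counts divided by vehicle-well nuclei counts. Counts came from 4× images of lung cancer cell lines grown in 1536-well plates for 5 days after pin-tool dosing on the day after seeding. Dosing used one drug alone or a fixed anchor-drug dose plus five library-drug doses (not always all listed) in √10 steps, and values are medians of duplicate plates.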

Compound in the experiment “Dasatinib + Luminespib”: Cc1nc(Nc2ncc(C(=O)Nc3c(C)cccc3Cl)s2)cc(N2CCN(CCO)CC2)n1 [Dasatinib] + CCNC(=O)c1noc(-c2cc(C(C)C)c(O)cc2O)c1-c1ccc(CN2CCOCC2)cc1 [Luminespib] (partner 0.01 µM)
A digest of the protocol:
as §1

Compound in experiment [1]: Cc1ccc(C(=O)Nc2cccc(C(F)(F)F)c2)cc1Nc1cncc(C(N)=O)c1 [ALW-II-49-7] + CC(=O)c1c(C)c2cnc(Nc3ccc(N4CCNCC4)cn3)nc2n(C2CCCC2)c1=O [Palbociclib] (partner 0.5 µM)
A digest of the protocol: as §1

Compound in the experiment “ALW-II-49-7 + Pictilisib”: Cc1ccc(C(=O)Nc2cccc(C(F)(F)F)c2)cc1Nc1cncc(C(N)=O)c1 [ALW-II-49-7] + CS(=O)(=O)N1CCN(Cc2cc3nc(-c4cccc5[nH]ncc45)nc(N4CCOCC4)c3s2)CC1 [Pictilisib] (partner 1 µM)
A digest of the protocol: as §1

As to UMC-11, the relative viability in the experiment with XMD13-2 + Navitoclax (first compound 0.05 µM) was determined as 0.347; with XMD13-2 + Navitoclax (first compound 0.1581 µM), 0.284; in the experiment with XMD13-2 + Navitoclax (first compound 0.5 µM) it was 0.309; with XMD13-2 + Navitoclax (first compound 1.581 µM) it was 0.344; with XMD13-2 + Navitoclax (first compound 5 µM), 0.265; in the experiment with Dasatinib + Luminespib (first compound 0.005 µM) it was 0.874. Also, the relative viability with Dasatinib + Luminespib (first compound 0.01581 µM) stood at 0.78; with Dasatinib + Luminespib (first compound 0.05 µM), 0.607; with Dasatinib + Luminespib (first compound 0.1581 µM), 0.316; with Dasatinib + Luminespib (first compound 0.5 µM) it was 0.328; in experiment [1] (first compound 0.08 µM), 0.345; in experiment [1] (first compound 0.253 µM), 0.348. For the same cell line, the relative viability in experiment [1] (first compound 0.8 µM) amounted to 0.33; in experiment [1] (first compound 2.53 µM), 0.295; in experiment [1] (first compound 8 µM), 0.274; with ALW-II-49-7 + Pictilisib (first compound 0.08 µM), 0.917; with ALW-II-49-7 + Pictilisib (first compound 0.253 µM), 0.807; with ALW-II-49-7 + Pictilisib (first compound 2.53 µM), 1.06. In addition, the relative viability with ALW-II-49-7 + Pictilisib (first compound 8 µM) came to 0.814.
